ChEMBL document CHEMBL5120903, “Constituents of Croton megalocarpus with Potential Anti-HIV Activity” (J Nat Prod, 2022)
pIC50: −log10 of the molar value.

Legend:
[1] = Cytotoxicity against human MT4 cells and measured after 5 days by MTT assay; assay type: toxicity, cell-based
[2] = Cytotoxicity against human FM55M1 cells assessed as reduction in cell viability measured upto 50 uM incubated for 72 hrs by cell titre 96 reagent based plate reader analysis; assay type: toxicity; details: fm55m1, 72 h
[3] = tested on: Human immunodeficiency virus 1; test: Anti-retroviral activity against HIV-1 IIIB infected in human MT4 cells assessed as inhibition of viral replication and measured after 5 days by MTT assay; assay type: functional, organism-based; details: Human immunodeficiency virus 1, IIIB, MT4, 120 h
[4] = biological target: Human immunodeficiency virus type 1 protease (Human immunodeficiency virus 1) (UniProt Q72874); test: Inhibition of HIV-1 protease at 10 ug/ml by fluorescence based plate reader assay relative to control; details: dose 10.0 µg/ml

C=C1CC[C@]2(O)OC(=O)C(C)=C2[C@@H]2[C@@H]1[C@@]13O[C@@]1(C[C@@H](C)[C@H]3O)[C@H]1O[C@@]21C
IC50 at 5 days [1]: 510 µM | Activity [2]: Non-Toxic | pIC50 [3]: 8.26 | inhibition [4]: 75%

C=C1CC[C@@H]2OC(=O)C(C)=C2[C@@H]2[C@@H]1[C@@]13O[C@@]1([C@@H](Cl)[C@@H](C)[C@H]3OC(C)=O)[C@@H](O)[C@@]2(C)O
IC50 at 5 days [1]: 209 µM | Activity [2]: Non-Toxic | pIC50 [3]: 7.55 | inhibition [4]: 63%
